Broadly, the melting point is the temperature of the solid-liquid transition.

In the case of `CNc1cc(C2=NOC(c3cc(Cl)cc(Cl)c3)(C(F)(F)F)C2)ccc1C(=O)NCC(F)(F)F` (stereo not shown), the melting point is 156 to 158 °C.

(Values after US8022089B2, “Isoxazoline-substituted benzamide compound and pesticide” (Nissan Chemical Industries, Ltd., priority 2004, dated 2011).)
